From article PMC7747594, “Protease-activated receptor-2 ligands reveal orthosteric and allosteric mechanisms of receptor inhibition” (Communications Biology, 2020)
Square brackets hold non-standard residues; d marks the D form. Peptide text beside a SMILES is read from it. * marks the point of attachment. Orn = NCCC[C@H](N)C(=O)O; 2Furoyl = O=C(c1ccco1)*

Key:
[1] = target: T1, hPAR2 (Homo sapiens, UniProt P55085); experiment: Schild and allosteric model analysis of Ca^2+ mobilisation in CHO-hPAR2 cells (2f-LIGRL-NH2 or trypsin); assay type: cell-based
T1 sequence (P55085 26-397): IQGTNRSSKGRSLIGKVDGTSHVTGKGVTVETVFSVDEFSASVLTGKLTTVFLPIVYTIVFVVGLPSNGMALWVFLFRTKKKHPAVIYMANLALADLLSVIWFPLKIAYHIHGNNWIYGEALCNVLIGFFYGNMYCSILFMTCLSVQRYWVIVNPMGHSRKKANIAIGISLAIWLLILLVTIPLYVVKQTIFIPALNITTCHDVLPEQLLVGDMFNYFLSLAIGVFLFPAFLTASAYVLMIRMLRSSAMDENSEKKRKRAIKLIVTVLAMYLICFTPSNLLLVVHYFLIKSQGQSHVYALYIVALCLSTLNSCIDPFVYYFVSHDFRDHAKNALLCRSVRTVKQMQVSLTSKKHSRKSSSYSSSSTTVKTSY
Experimental: (§1) Cells were loaded with Fluo-8 NW calcium dye (AAT Bioquest) for 30 min at 37 °C before compounds in Hank’s balanced salt solution (HBSS, ThermoFisher Scientific) with 20 mM HEPES (ThermoFisher Scientific), 0.1% bovine serum albumin (BSA, Sigma) and 0.5% DMSO were added and simultaneously evaluated for changes in intracellular [Ca^2+] using FLIPR TETRA (Molecular Devices) to detect agonism. For each concentration, the difference between the maximum peak Ca^2+ response and baseline response is reported. […] Antagonism experiments were also carried out on 1321N1-PAR2[WT], 1321N1-PAR2[F154A], and 1321N1-PAR2[G157C] as described. Experiments with trypsin in 1321N1-hPAR2 cells were performed in the presence of 1 µM Vorapaxar (Chemtronica) to remove any interference of PAR1 activity. […] Antagonism experiments for CHO-hPAR2 and HT-29 cells were performed in 96-well plates at 30,000 cells/well. Cells were loaded with Fluo-3 AM calcium dye (Sigma-Aldrich) for 60 min at 37 °C in HBSS with 1% FBS, 0.2% pluronic acid, 20 mM HEPES and 2.5 mM probenecid prior to the addition of antagonist. The antagonist was pre-incubated for 60 min at 37 °C followed by the addition of bovine trypsin (30 nM) at EC80. Intracellular [Ca^2+] flux was measured using FLIPR TETRA (Molecular Devices) and the difference between the maximum peak Ca^2+ response and baseline response is reported.
(§2) Binding data were analysed using the One site – Fit Ki model in GraphPad Prism 8 (GraphPad Software) to determine binding affinity. Pharmacology in vitro potency data was analysed with a 4-parameter logistic fit using the equation y = Bottom + (Top − Bottom)/[…] where y is the response, x is the 10-logarithm of the drug concentration, Bottom is no response and Top is full response in GraphPad Prism 8 or Genedata Screener (Genedata). pEC50 and pIC50 data are presented as mean ± standard error of the mean (s.e.m.) derived from the number of independent experiments stated. Schild slope analysis was calculated using Graphpad Prism 8 Gaddum/Schild EC50 global fitting (shared model parameters between all data sets) competitive model. […] Schild slope quantifies the shifts in agonist response in the presence of antagonist, a Schild slope of 1 indicates the antagonist is competitive and extra-sum-of-squares F-test (p < 0.05) was used to compare the calculated Schild slope against a hypothetical Schild slope of 1. […] The relative activity was calculated using (EmaxEC50’)/(Emax’EC50) with the Hill slope help constant at 1. EC50’ and Emax’ denote the EC50 and Emax in the absence of allosteric modulator, while EC50 and Emax denote those measured in the presence of allosteric modulator. When the Hill slope = 1, the relative activity plot approaches an asymptote corresponding to the estimate of the γ value.

[2] = target: T1, hPAR2; experiment: Ca^2+ flux assay (FLIPR), inhibition of SLIGRL-NH2 activation in 1321N1-hPAR2 cells; assay type: cell-based; conditions: SLIGRL-NH2, 1321N1-hPAR2 cells; mean ± s.e.m.; read-out: Ca^2+ flux (hPAR2) pIC50 (converted)
Experimental: as §1, §2

[3] = target: T2, rat PAR2 (Rattus norvegicus, UniProt Q63645); experiment: Ca^2+ flux assay, inhibition of SLIGRL-NH2 activation in rat KNRK cells; assay type: cell-based; conditions: SLIGRL-NH2, rat PAR2 in KNRK cells; mean ± s.e.m.; read-out: Ca^2+ flux (rPAR2) pIC50 (converted)
T2 construct: a rat KNRK cell line with endogenous expression of rat PAR2; host or cells: rat KNRK cells
T2 sequence (Q63645 26-397): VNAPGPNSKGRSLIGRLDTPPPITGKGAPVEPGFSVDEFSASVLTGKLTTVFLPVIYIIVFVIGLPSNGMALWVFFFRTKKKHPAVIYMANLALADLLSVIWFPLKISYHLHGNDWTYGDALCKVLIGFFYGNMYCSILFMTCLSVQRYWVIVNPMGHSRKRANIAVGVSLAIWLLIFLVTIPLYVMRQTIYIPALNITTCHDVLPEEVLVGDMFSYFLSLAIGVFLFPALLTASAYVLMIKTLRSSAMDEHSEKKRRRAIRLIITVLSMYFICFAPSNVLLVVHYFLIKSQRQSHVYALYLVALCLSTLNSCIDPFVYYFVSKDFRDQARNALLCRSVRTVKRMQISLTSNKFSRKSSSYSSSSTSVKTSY

[4] = target: T1, hPAR2; experiment: IP1 HTRF assay, inhibition of SLIGRL-NH2 in 1321N1-hPAR2 cells; assay type: cell-based; conditions: SLIGRL-NH2, 1321N1-hPAR2 cells; mean ± s.e.m.; read-out: IP1 (hPAR2) pIC50 (converted)
Experimental: Inhibition of PAR2-induced inositol-1-phosphate (IP1) production was measured in 1321N1-hPAR2 cells using IP-One Gq HTRF assay kit (Cisbio). […] Next, EC80 of SLIGRL-NH2 (70 µM) supplemented with 50 mM LiCl was added and incubated for 60 min at 37 °C. Detection of IP1 production was performed according to the manufacturer’s protocol and HTRF was measured using PHERAstar (BMG LabTech). Data were normalised to [IP1] using a standard curve.
as §2

[5] = target: T1, hPAR2; experiment: pERK1/2 HTRF assay, inhibition of SLIGRL-NH2 in U2OS-hPAR2 cells; assay type: cell-based; conditions: SLIGRL-NH2, U2OS-hPAR2; mean ± s.e.m.; read-out: pERK1/2 (hPAR2) pIC50 (converted)
Experimental: Phosphorylation of ERK1/2 was measured in U2OS-hPAR2 cells using Phospho-ERK1/2 (Thr202/Tyr204) assay kit (64ERKPEH Cisbio) and the 2 plate manufacturer’s protocol with the following modifications. Cells were seeded in McCoy’s 5A media containing 10% FBS at 15,000 cells per well in 384-well plates and incubated overnight at 37 °C, 5% CO2. Antagonist compounds (30 µM–1 nM) were incubated with the cells for 30 min prior to the addition of agonist SLIGRL-NH2 (10 µM) at EC80 and further incubation for 5 min at 37 °C. The supernatant was removed from the wells and lysis buffer was added to the cells and incubated with shaking at room temperature for 30 min. The cell lysate was transferred into a small-volume 384-well plate containing detection antibodies and incubated for 4 h at room temperature in the dark. Plates were read for HTRF signal on PHERAstar (BMG LabTech). In addition, phosphorylation of ERK1/2 was measured in CHO-hPAR2 using AlphaLISA SureFire Ultra pERK1/2 (Thr202/Tyr204) (Perkin Elmer). Cells were seeded at a density of 2000 cells per well in a 384-well proxiplate and incubated overnight. […] After incubation, cell lysis buffer was added with shaking for 30 min. Antibodies and beads were added and incubated for 4 h at room temperature. AlphaLISA signal was measured using a PHERAstar (BMG LabTech).
as §2

[6] = target: T1, hPAR2; experiment: β-arrestin-2 recruitment assay, inhibition of SLIGRL-NH2 in U2OS-hPAR2 cells; assay type: cell-based; conditions: SLIGRL-NH2, U2OS-hPAR2; mean ± s.e.m.; read-out: β-arrestin (hPAR2) pIC50 (converted)
Experimental: β‐Arrestin-2 recruitment was measured in U2OS-hPAR2 cells using the DiscoverX assay kit, according to the manufacturer’s instructions. Briefly, cells were seeded in McCoy’s 5A media containing 10% FBS at 4000 cells per well in 384-well plates and incubated overnight at 37 °C, 5% CO2. Antagonist compounds (30 µM–1 nM) were incubated with the cells for 30 min prior to the addition of agonist SLIGRL-NH2 (10 µM) at EC80 and further incubation for 90 min at 37 °C. Working detection solution (12 µl) was then added to each well, incubated at room temperature in the dark for 60 min and the chemiluminescence signal read on the EnVision microplate reader (Perkin Elmer).
as §2

[7] = target: T1, hPAR2; experiment: Ca^2+ flux assay, inhibition of trypsin activation in 1321N1-hPAR2 cells (with 1 µM Vorapaxar); assay type: cell-based; conditions: 1321N1-hPAR2 cells, 1 µM Vorapaxar
[8] = target: T1, hPAR2; experiment: Europium-tagged competition binding assay against Eu-tagged-2f-LIGRLO(dtpa)-NH2 on CHO-hPAR2 cells; design: expressed in transfected cells; host or cells: Flp-In CHO; conditions: determined with Eu-tagged-2f-LIGRLO(dtpa)-NH2; read-out: equilibrium dissociation constant pKA / pKB (converted)
Experimental: CHO-hPAR2 cells were seeded overnight in 384-well plate at 2.5 × 10^4 cells/well and blocked with 2% BSA for 60 min. […] Cells were washed 3× with PBS supplemented with 20 µM EDTA, 0.01% Tween and 0.2% BSA followed by addition of DELFIA Enhancement Solution (Perkin Elmer) for 90 min. Time-resolved fluorescence was measured with PHERAstar FS reader (BMG Labtech).
as §2

Compound: CC[C@H](C)[C@H](NC(=O)[C@H](CC(C)C)NC(=O)c1ccco1)C(=O)NCC(=O)N[C@@H](CCCNC(=N)N)C(=O)N[C@@H](CC(C)C)C(N)=O [2f-LIGRL-NH2, reference compound]
- EC50 [1]: 250 nM

Compound: C[C@@H](C1CCCCC1)n1c(-c2cc3c(cc2Br)OCO3)nc2cc(C(=O)Nc3ccccc3)ccc21 [AZ8935]
- IC50 [2]: 20 nM
- IC50 [3]: 7.94 nM
- IC50 [4]: 302 nM
- IC50 [5]: 1260 nM
- IC50 [6]: 380 nM
- shape of inhibition of trypsin-induced Ca^2+ mobilisation [7]: biphasic inhibition curves

Compound: CC[C@H](C)[C@H](NC(=O)[C@H](CC(C)C)NC(=O)c1ccco1)C(=O)NCC(=O)N[C@@H](CCCN=C(N)N)C(=O)N[C@@H](CC(C)C)C(=O)N[C@@H](CCCN)C(N)=O [2f-LIGRLO-NH2, reference compound] (2Furoyl-LIGRL[Orn]-NH2)
- Kb [8]: 794 nM
